Source: PubChem BioAssay AID330 (DTP/NCI, 2004)
Several values for one entry are separate records, joined by “and”; a condition that tells them apart may be missing. Identical values can stand only once. Inconclusive results and toxic doses are left out.

Tested on: P388 leukemia ip, CD2F1 mice, survival T/C
Assay: NCI In Vivo Anticancer Drug Screen. Data for tumor model P388 Leukemia (intraperitoneal) in CD2F1 (CDF1) mice
Settings: endpoint: median survival time, higher = longer survival
Method in brief: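 Mice carrying the transplanted tumor received test compound or vehicle. Survival was recorded in each group, and the value is the treated-group measurement divided by that of the vehicle-treated control group.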

[1] = dose: 50.0 mg/kg/injection, schedule: Q01DX005 (ip), vehicle: saline with Tween-80
[2] = dose: 100.0 mg/kg/injection, schedule: Q01DX005 (ip), vehicle: saline with Tween-80
[3] = dose: 200.0 mg/kg/injection, schedule: Q01DX005 (ip), vehicle: saline with Tween-80
[4] = dose: 60.0 mg/kg/injection, schedule: Q01DX005 (ip), vehicle: saline with Tween-80
[5] = dose: 120.0 mg/kg/injection, schedule: Q01DX005 (ip), vehicle: saline with Tween-80
[6] = dose: 240.0 mg/kg/injection, schedule: Q01DX005 (ip), vehicle: saline with Tween-80
[7] = dose: 50.0 mg/kg/injection, schedule: Q01DX009 (ip), vehicle: saline
[8] = dose: 100.0 mg/kg/injection, schedule: Q01DX009 (ip), vehicle: saline
[9] = dose: 200.0 mg/kg/injection, schedule: Q01DX009 (ip), vehicle: saline
[10] = dose: 50.0 mg/kg/injection, schedule: Q01DX005 (ip), vehicle: saline
[11] = dose: 100.0 mg/kg/injection, schedule: Q01DX005 (ip), vehicle: saline
[12] = dose: 200.0 mg/kg/injection, schedule: Q01DX005 (ip), vehicle: saline
[13] = dose: 400.0 mg/kg/injection, schedule: Q04DX002 (ip), vehicle: saline
[14] = dose: 12.5 mg/kg/injection, schedule: Q01DX009 (ip), vehicle: water
[15] = dose: 25.0 mg/kg/injection, schedule: Q01DX009 (ip), vehicle: water
[16] = dose: 50.0 mg/kg/injection, schedule: Q01DX009 (ip), vehicle: water
[17] = dose: 100.0 mg/kg/injection, schedule: Q01DX009 (ip), vehicle: water
[18] = dose: 50.0 mg/kg/injection, schedule: Q01DX009 (ip), vehicle: Klucel (hydroxypropylcellulose) (HPC)
[19] = dose: 100.0 mg/kg/injection, schedule: Q01DX009 (ip), vehicle: Klucel (hydroxypropylcellulose) (HPC)
[20] = dose: 200.0 mg/kg/injection, schedule: Q01DX009 (ip), vehicle: Klucel (hydroxypropylcellulose) (HPC)

Cc1csc(C)[n+]1C
T/C (dose: 25.0 mg/kg/injection, schedule: Q01DX009 (ip), vehicle: saline sonified): 100 % of control | T/C (dose: 50.0 mg/kg/injection, schedule: Q01DX009 (ip), vehicle: saline sonified): 100 % of control | T/C (dose: 100.0 mg/kg/injection, schedule: Q01DX009 (ip), vehicle: saline sonified): 90 % of control

O=C1CN(c2cccc(C(F)(F)F)c2)C(=O)CN1/N=C/c1cccnc1
T/C [1]: 94 % of control | T/C [2]: 97 % of control | T/C [3]: 94 % of control

C#CCSc1n[nH]c(=O)n1C1CCCCC1
T/C [4]: 99 % of control | T/C [5]: 106 % of control | T/C [6]: 106 % of control

Cc1ccc2sc3ccccc3c(=O)c2c1
T/C [7]: 104 % of control | T/C [8]: 113 % of control | T/C [9]: 87 % of control

Cc1nn(C(=O)c2ccccn2)c(-c2ccccc2)c1N=Nc1ccc(S(=O)(=O)Nc2ncccn2)cc1
T/C [4]: 102 % of control | T/C [5]: 100 % of control

O=S(=O)(Nc1ccccn1)c1ccc(NC2OC(CO)C(O)C(O)C2O)cc1 (configuration not stated)
T/C [10]: 103 % of control | T/C [11]: 98 % of control | T/C [12]: 103 % of control

N#Cc1ccc(Cl)cc1
T/C (dose: 50.0 mg/kg/injection, schedule: Q01DX009 (ip), vehicle: saline with Tween-80): 101 % of control | T/C (dose: 100.0 mg/kg/injection, schedule: Q01DX009 (ip), vehicle: saline with Tween-80): 89 % of control | T/C (dose: 200.0 mg/kg/injection, schedule: Q01DX009 (ip), vehicle: saline with Tween-80): 93 % of control

FC(F)(F)C1OC2CCCN2C2=C1CCc1ccccc12 (configuration not stated)
T/C (dose: 100.0 mg/kg/injection, schedule: Q04DX002 (ip), vehicle: saline): 108 % of control | T/C (dose: 200.0 mg/kg/injection, schedule: Q04DX002 (ip), vehicle: saline): 101 % of control | T/C [13]: 100 % of control

O=C(Nc1ncn[nH]1)c1ccccc1O
T/C (dose: 50.0 mg/kg/injection, schedule: Q01DX005 (ip), vehicle: Klucel (hydroxypropylcellulose) (HPC)): 99 % of control | T/C (dose: 100.0 mg/kg/injection, schedule: Q01DX005 (ip), vehicle: Klucel (hydroxypropylcellulose) (HPC)): 91 % of control | T/C (dose: 200.0 mg/kg/injection, schedule: Q01DX005 (ip), vehicle: Klucel (hydroxypropylcellulose) (HPC)): 86 % of control

COc1nc(NC2OCC(OC(C)=O)C(OC(C)=O)C2OC(C)=O)c(N=C(C)C(C)=O)c(=O)n1C (configuration not stated)
T/C [4]: 86 % of control | T/C [5]: 92 % of control | T/C [6]: 94 % of control

CN/N=C(/C)C(=O)O
T/C [10]: 106 % of control | T/C [11]: 99 % of control | T/C [12]: 99 % of control

COC1=C(C)C(=O)c2c(c(C=O)c(Cl)n2C)C1=O
T/C (dose: 100.0 mg/kg/injection, schedule: Q01DX001 (ip), vehicle: Klucel (hydroxypropylcellulose) (HPC)): 99 % of control | T/C (dose: 200.0 mg/kg/injection, schedule: Q01DX001 (ip), vehicle: Klucel (hydroxypropylcellulose) (HPC)): 103 % of control

N=c1c2c(C(N)=O)cn(C3OC(CO)C(O)C3O)c2ncn1N (configuration not stated)
T/C (dose: 50.0 mg/kg/injection, schedule: Q01DX005 (ip), vehicle: water): 166 % of control

CC(CC(C)C)=NC(C)CC(C)C (configuration not stated)
T/C [10]: 97 % of control | T/C [11]: 95 % of control

ClC1=CC(Cl)=C2N=C(C(Cl)(Cl)Cl)N=C3N=C(C(Cl)(Cl)Cl)N=C1N32
T/C (dose: 15.0 mg/kg/injection, schedule: Q01DX005 (ip), vehicle: Klucel + Tween-80): 101 % of control | T/C (dose: 30.0 mg/kg/injection, schedule: Q01DX005 (ip), vehicle: Klucel + Tween-80): 95 % of control | T/C (dose: 60.0 mg/kg/injection, schedule: Q01DX005 (ip), vehicle: Klucel + Tween-80): 99 % of control and 100 % of control

Cc1cc(NC(=O)Nc2cccc(C3=NCCN3)c2)ccc1NC(=O)Nc1cccc(C2=NCCN2)c1
T/C (dose: 100.0 mg/kg/injection, schedule: Q04DX003 (ip), vehicle: saline with Tween-80): 108 % of control | T/C (dose: 200.0 mg/kg/injection, schedule: Q04DX003 (ip), vehicle: saline with Tween-80): 108 % of control | T/C (dose: 400.0 mg/kg/injection, schedule: Q04DX003 (ip), vehicle: saline with Tween-80): 120 % of control

COc1ccc(-n2cnc3c(cnn3C)c2=O)cc1
T/C (dose: 60.0 mg/kg/injection, schedule: Q01DX005 (ip), vehicle: Klucel (hydroxypropylcellulose) (HPC)): 100 % of control | T/C (dose: 120.0 mg/kg/injection, schedule: Q01DX005 (ip), vehicle: Klucel (hydroxypropylcellulose) (HPC)): 91 % of control

Cc1ccc(S(=O)(=O)N=C(N(C)C)N(C)C)cc1
T/C (dose: 100.0 mg/kg/injection, schedule: Q04DX002 (ip), vehicle: saline with Tween-80): 99 % of control | T/C (dose: 200.0 mg/kg/injection, schedule: Q04DX002 (ip), vehicle: saline with Tween-80): 100 % of control | T/C (dose: 400.0 mg/kg/injection, schedule: Q04DX002 (ip), vehicle: saline with Tween-80): 104 % of control

CCCC12C=C(OC)C(=O)C(C1=O)C(c1ccc3c(c1)OCO3)C2C (configuration not stated)
T/C (dose: 8.75 mg/kg/injection, schedule: Q01DX005 (ip), vehicle: Klucel (hydroxypropylcellulose) (HPC)): 118 % of control | T/C (dose: 17.5 mg/kg/injection, schedule: Q01DX005 (ip), vehicle: Klucel (hydroxypropylcellulose) (HPC)): 110 % of control | T/C (dose: 35.0 mg/kg/injection, schedule: Q01DX005 (ip), vehicle: Klucel (hydroxypropylcellulose) (HPC)): 100 % of control

Cc1ccc(N2C(=O)c3cccc4c(N)c(S(=O)(=O)O)cc(c34)C2=O)cc1
T/C [7]: 108 % of control | T/C [8]: 104 % of control | T/C [9]: 100 % of control

NC(=O)NC(C/[N+]([O-])=N/O)C(=O)O (configuration not stated)
T/C [14]: 100 % of control | T/C [15]: 96 % of control | T/C [16]: 98 % of control | T/C [17]: 98 % of control

O=NN(C(=O)NC1CC1)C1CC1
T/C (dose: 25.0 mg/kg/injection, schedule: Q01DX001 (ip), vehicle: water): 111 % of control | T/C (dose: 50.0 mg/kg/injection, schedule: Q01DX001 (ip), vehicle: water): 102 % of control | T/C (dose: 100.0 mg/kg/injection, schedule: Q01DX001 (ip), vehicle: water): 109 % of control

CC(=O)OC1CCC2(C)C(C1)CC(OC(C)=O)C1C2CC(OC(C)=O)C2(C)C(/C(C)=C\C=C(c3ccccc3)c3ccccc3)CCC12 (configuration not stated)
T/C [18]: 103 % of control | T/C [19]: 112 % of control | T/C [20]: 121 % of control

O=C(Cc1ccccc1)C1=S=C2SCCCN2C1=O
T/C (dose: 100.0 mg/kg/injection, schedule: Q01DX001 (ip), vehicle: saline with Tween-80): 105 % of control | T/C (dose: 200.0 mg/kg/injection, schedule: Q01DX001 (ip), vehicle: saline with Tween-80): 97 % of control | T/C (dose: 400.0 mg/kg/injection, schedule: Q01DX001 (ip), vehicle: saline with Tween-80): 92 % of control

O=C1c2ccccc2-c2n[nH]c3cccc1c23
T/C [18]: 101 % of control | T/C [19]: 102 % of control | T/C [20]: 96 % of control | T/C (dose: 400.0 mg/kg/injection, schedule: Q01DX009 (ip), vehicle: Klucel (hydroxypropylcellulose) (HPC)): 95 % of control

CNC(=O)N1CCOC1c1ccc(NC(=O)OC)cc1 (configuration not stated)
T/C [4]: 96 % of control | T/C [5]: 90 % of control | T/C [6]: 95 % of control

NC(Cc1cccs1)C(=O)Nc1nncs1 (configuration not stated)
T/C (dose: 100.0 mg/kg/injection, schedule: Q04DX002 (ip), vehicle: suspension in saline): 95 % of control | T/C (dose: 200.0 mg/kg/injection, schedule: Q04DX002 (ip), vehicle: suspension in saline): 119 % of control | T/C [13]: 160 % of control | T/C (dose: 400.0 mg/kg/injection, schedule: Q04DX002 (ip), vehicle: suspension in saline): 121 % of control | T/C (dose: 600.0 mg/kg/injection, schedule: Q04DX002 (ip), vehicle: saline): 160 % of control

CCOC(=O)c1nc(C)nc(N)c1C
T/C [14]: 102 % of control | T/C [15]: 91 % of control | T/C [16]: 93 % of control | T/C [17]: 100 % of control | T/C (dose: 200.0 mg/kg/injection, schedule: Q01DX009 (ip), vehicle: water): 100 % of control

O=C1C=C(Nc2ccccn2)C(=O)C=C1Nc1ccccn1
T/C [1]: 107 % of control | T/C [2]: 107 % of control | T/C [3]: 105 % of control
